According to patent US8541418B2, “Inhibitors of polo-like kinase” (Elan Pharmaceutical, Inc., priority 2009, dated 2013):

How the values were obtained:
Format in all cases: biochemical
[1] = molecular target: PLK3 (Homo sapiens, UniProt Q9H4B4); assay: PLK TR-FRET peptide assay, PLK3; settings: GST-PLK3, 15 min reaction, read-out: Plk3 IC50
[2] = molecular target: PLK2 (Homo sapiens, UniProt Q9NYY3); assay: PLK TR-FRET peptide assay, PLK2; settings: for IC50: PLK TR-FRET peptide assay, GST-PLK2, 60 min reaction, read-out: Plk2 IC50
Chain of PLK2 (Q9NYY3 whole entry): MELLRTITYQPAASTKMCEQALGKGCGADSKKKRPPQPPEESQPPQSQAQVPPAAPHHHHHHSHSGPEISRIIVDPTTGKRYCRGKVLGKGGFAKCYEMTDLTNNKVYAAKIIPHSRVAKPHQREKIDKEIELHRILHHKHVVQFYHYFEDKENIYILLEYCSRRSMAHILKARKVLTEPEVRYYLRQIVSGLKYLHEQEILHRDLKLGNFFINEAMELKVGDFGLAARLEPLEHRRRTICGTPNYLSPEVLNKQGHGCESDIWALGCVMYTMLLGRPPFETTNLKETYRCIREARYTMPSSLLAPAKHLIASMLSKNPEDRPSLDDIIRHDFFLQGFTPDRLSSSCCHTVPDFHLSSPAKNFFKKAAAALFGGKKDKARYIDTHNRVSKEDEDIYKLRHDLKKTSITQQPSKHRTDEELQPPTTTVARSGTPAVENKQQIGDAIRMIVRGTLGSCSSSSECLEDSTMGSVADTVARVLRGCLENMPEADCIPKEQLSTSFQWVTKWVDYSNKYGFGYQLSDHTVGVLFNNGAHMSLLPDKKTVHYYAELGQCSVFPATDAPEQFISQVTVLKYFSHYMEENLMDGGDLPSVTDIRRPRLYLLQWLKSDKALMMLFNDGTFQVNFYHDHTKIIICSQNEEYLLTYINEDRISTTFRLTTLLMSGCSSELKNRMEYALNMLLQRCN

[3] = molecular target: PLK1 (Homo sapiens, UniProt P53350); assay: PLK TR-FRET peptide assay, PLK1; settings: GST-PLK1, 60 min reaction
Chain of PLK1 (P53350 whole entry): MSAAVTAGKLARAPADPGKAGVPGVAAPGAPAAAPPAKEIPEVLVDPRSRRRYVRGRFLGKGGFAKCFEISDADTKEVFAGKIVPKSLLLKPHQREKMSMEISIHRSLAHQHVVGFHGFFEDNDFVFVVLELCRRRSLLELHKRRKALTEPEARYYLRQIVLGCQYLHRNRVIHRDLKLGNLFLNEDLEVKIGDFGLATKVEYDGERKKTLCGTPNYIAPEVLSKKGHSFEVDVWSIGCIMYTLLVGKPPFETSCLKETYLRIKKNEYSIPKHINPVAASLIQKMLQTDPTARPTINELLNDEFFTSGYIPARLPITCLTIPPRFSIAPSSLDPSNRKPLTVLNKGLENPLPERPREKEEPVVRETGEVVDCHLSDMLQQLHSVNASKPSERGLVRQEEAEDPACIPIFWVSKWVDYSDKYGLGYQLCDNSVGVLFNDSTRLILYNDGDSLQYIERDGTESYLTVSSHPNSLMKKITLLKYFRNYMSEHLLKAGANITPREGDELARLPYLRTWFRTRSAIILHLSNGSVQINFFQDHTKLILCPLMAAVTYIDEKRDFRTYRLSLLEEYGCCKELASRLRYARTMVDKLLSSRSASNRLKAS

Chain of PLK3 (Q9H4B4 whole entry): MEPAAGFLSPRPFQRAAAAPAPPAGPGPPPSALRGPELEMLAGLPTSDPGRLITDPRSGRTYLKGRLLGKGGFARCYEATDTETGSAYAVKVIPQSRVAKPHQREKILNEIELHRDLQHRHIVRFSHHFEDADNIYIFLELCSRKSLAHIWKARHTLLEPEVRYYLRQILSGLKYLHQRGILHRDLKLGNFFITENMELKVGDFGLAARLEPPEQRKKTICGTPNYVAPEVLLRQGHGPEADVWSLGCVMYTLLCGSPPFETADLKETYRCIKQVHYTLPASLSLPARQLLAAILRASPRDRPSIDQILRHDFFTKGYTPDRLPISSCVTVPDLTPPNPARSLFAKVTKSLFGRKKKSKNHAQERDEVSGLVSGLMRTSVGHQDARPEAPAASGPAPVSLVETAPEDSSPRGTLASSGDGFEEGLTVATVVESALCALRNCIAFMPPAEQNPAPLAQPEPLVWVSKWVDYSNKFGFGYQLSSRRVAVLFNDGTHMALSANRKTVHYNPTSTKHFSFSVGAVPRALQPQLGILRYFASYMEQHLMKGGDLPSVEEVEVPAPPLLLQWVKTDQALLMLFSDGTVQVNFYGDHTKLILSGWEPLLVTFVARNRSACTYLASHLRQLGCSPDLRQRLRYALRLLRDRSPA

Row | Compound | IC50 [1] | IC50 [2] | IC50 [3] | relative PLK2 activity of the enantiomers ([2]; compared with the opposite enantiomer)
1 | [2H]C([2H])([2H])N1C(=O)[C@H](C([2H])([2H])C([2H])([2H])[2H])N(C([2H])(C([2H])([2H])[2H])C([2H])([2H])[2H])c2nc(-n3ccnc3-c3cccc(F)c3)ncc21 [Example 201, (S)-7-perdeuteroethyl-2-(2-(3-fluorophenyl)-1H-imidazol-1-yl)-8-perdeuteroisopropyl-5-trideuteromethyl-7,8-dihydropteridin-6(5H)-one] | > 50 µM | 1 to 10 µM | 10 to 50 µM | 
2 | [2H]C([2H])([2H])N1C(=O)[C@@H](C([2H])([2H])C([2H])([2H])[2H])N(C([2H])(C([2H])([2H])[2H])C([2H])([2H])[2H])c2nc(-n3ccnc3-c3cccc(F)c3)ncc21 [Example 202, (R)-7-perdeuteroethyl-2-(2-(3-fluorophenyl)-1H-imidazol-1-yl)-8-perdeuteroisopropyl-5-trideuteromethyl-7,8-dihydropteridin-6(5H)-one] | 1 to 10 µM | < 1 µM | < 1 µM | more active compound
3 | CC[C@@H]1C(=O)N(C)c2cnc(-n3ccnc3-c3cccc(Cl)c3)nc2N1C(C)C [Example 204, (R)-2-(2-(3-chlorophenyl)-1H-imidazol-1-yl)-7-ethyl-8-isopropyl-5-methyl-7,8-dihydropteridin-6(5H)-one] | 1 to 10 µM | < 1 µM | < 1 µM | 
4 | CC[C@@]12CCCN1c1nc(-n3ccnc3-c3nccc4ccccc34)ncc1N(C)C2=O [Example 206, (S)-6a-ethyl-2-(2-(isoquinolin-1-yl)-1H-imidazol-1-yl)-5-methyl-6a,7,8,9-tetrahydropyrrolo[2,1-h]pteridin-6(5H)-one] | 10 to 50 µM | 1 to 10 µM | > 50 µM | 
5 | CC[C@@H]1C(=O)N(C)c2cnc(-n3nccc3-c3ccccc3)nc2N1C1CCC1 [Example 207, (R)-8-cyclobutyl-7-ethyl-5-methyl-2-(5-phenyl-1H-pyrazol-1-yl)-7,8-dihydropteridin-6(5H)-one] | 1 to 10 µM | < 1 µM | < 1 µM | 
6 | CC[C@@H]1C(=O)N(C)c2cnc(-n3ncnc3-c3ccccc3)nc2N1C1CCC1 [Example 208, (R)-8-cyclobutyl-7-ethyl-5-methyl-2-(5-phenyl-1H-1,2,4-triazol-1-yl)-7,8-dihydropteridin-6(5H)-one] | < 1 µM | < 1 µM | < 1 µM | 
7 | CCC12CCCCCN1c1nc(-n3nccc3-c3ccccc3)ncc1N(C)C2=O (stereo not shown) [Example 209, 6a-ethyl-5-methyl-2-(5-phenyl-1H-pyrazol-1-yl)-6a,7,8,9,10,11-hexahydroazepino[2,1-h]pteridin-6(5H)-one] | 10 to 50 µM | 1 to 10 µM | 10 to 50 µM | 
8 | CC[C@@H]1C(=O)N(C)c2cnc(N3CCN(C)CC3)nc2N1C1CCCC1 [Example 210, (R)-8-cyclopentyl-7-ethyl-5-methyl-2-(4-methylpiperazin-1-yl)-7,8-dihydropteridin-6(5H)-one] | > 50 µM | > 50 µM | > 50 µM | 
9 | CC[C@@H]1C(=O)N(C)c2cnc(-n3ccnc3-c3cccc(Cl)c3)nc2N1C1CCOC1 (stereo partly drawn) [Example 211, (7R)-2-(2-(3-chlorophenyl)-1H-imidazol-1-yl)-7-ethyl-5-methyl-8-(tetrahydrofuran-3-yl)-7,8-dihydropteridin-6(5H)-one] | 1 to 10 µM | < 1 µM | < 1 µM | 
10 | CC[C@@H]1C(=O)N(C)c2cnc(-n3ccnc3-c3ccc(F)cc3)nc2N1C(C)C [Example 212, (R)-7-ethyl-2-(2-(4-fluorophenyl)-1H-imidazol-1-yl)-8-isopropyl-5-methyl-7,8-dihydropteridin-6(5H)-one] | 1 to 10 µM | < 1 µM | 1 to 10 µM | 
11 | CC[C@@]12CCCN1c1nc(-n3ccnc3-c3ccc(F)c(Cl)c3)ncc1N(C)C2=O [Example 213, (S)-2-(2-(3-chloro-4-fluorophenyl)-1H-imidazol-1-yl)-6a-ethyl-5-methyl-6a,7,8,9-tetrahydropyrrolo[2,1-h]pteridin-6(5H)-one] | 10 to 50 µM | < 1 µM | 10 to 50 µM | 
12 | CC[C@@H]1C(=O)N(C)c2cnc(N3CCNC(=O)C3)nc2N1C1CCCC1 [Example 214, (R)-8-cyclopentyl-7-ethyl-5-methyl-2-(3-oxopiperazin-1-yl)-7,8-dihydropteridin-6(5H)-one] | > 50 µM | 10 to 50 µM | 1 to 10 µM | 
13 | CC[C@@H]1C(=O)N(C)c2cnc(-n3ncnc3-c3cccc4ncccc34)nc2N1C1CCC1 [Example 215, (R)-8-cyclobutyl-7-ethyl-5-methyl-2-(5-(quinolin-5-yl)-1H-1,2,4-triazol-1-yl)-7,8-dihydropteridin-6(5H)-one] | 1 to 10 µM | 1 to 10 µM | 1 to 10 µM | 
14 | CC[C@@]12CCCN1c1nc(-n3ccnc3-c3ccc(Cl)s3)ncc1N(C)C2=O [Example 218, (S)-2-(2-(5-chlorothiophen-2-yl)-1H-imidazol-1-yl)-6a-ethyl-5-methyl-6a,7,8,9-tetrahydropyrrolo[2,1-h]pteridin-6(5H)-one] | 10 to 50 µM | < 1 µM | 10 to 50 µM | 
15 | CC[C@@]12CCCN1c1nc(-n3ncnc3-c3cccc4ncccc34)ncc1N(C)C2=O [Example 219, (S)-6a-ethyl-5-methyl-2-(5-(quinolin-5-yl)-1H-1,2,4-triazol-1-yl)-6a,7,8,9-tetrahydropyrrolo[2,1-h]pteridin-6(5H)-one] | > 50 µM | 1 to 10 µM | 10 to 50 µM | 
16 | CC[C@@H]1C(=O)N(C)c2cnc(-n3ccnc3-c3cccc(Br)c3)nc2N1C(C)C [Example 220, (R)-2-(2-(3-bromophenyl)-1H-imidazol-1-yl)-7-ethyl-8-isopropyl-5-methyl-7,8-dihydropteridin-6(5H)-one] | 1 to 10 µM | < 1 µM | < 1 µM | 
17 | CC[C@@]12CCCN1c1nc(-c3cncnc3-c3ccccc3)ncc1N(C)C2=O [Example 222, (S)-6a-ethyl-5-methyl-2-(4-phenylpyrimidin-5-yl)-6a,7,8,9-tetrahydropyrrolo[2,1-h]pteridin-6(5H)-one] | 10 to 50 µM | 1 to 10 µM | 10 to 50 µM | 
18 | CC[C@@H]1C(=O)N(C)c2cnc(N3CCN(c4cnccn4)CC3)nc2N1C1CCCC1 [Example 223, (R)-8-cyclopentyl-7-ethyl-5-methyl-2-(4-(pyrazin-2-yl)piperazin-1-yl)-7,8-dihydropteridin-6(5H)-one] | > 50 µM | 1 to 10 µM | 1 to 10 µM | 
19 | CC[C@@H]1C(=O)N(C)c2cnc(-n3ccnc3-c3ccc(F)cn3)nc2N1C1CCC1 [Example 224, (R)-8-cyclobutyl-7-ethyl-2-(2-(5-fluoropyridin-2-yl)-1H-imidazol-1-yl)-5-methyl-7,8-dihydropteridin-6(5H)-one] | 10 to 50 µM | < 1 µM | 1 to 10 µM | 
20 | CC[C@@]12CCCN1c1nc(-n3ccnc3-c3cccc(F)c3)ncc1N(C)C2=O [Example 225, (S)-6a-ethyl-2-(2-(3-fluorophenyl)-1H-imidazol-1-yl)-5-methyl-6a,7,8,9-tetrahydropyrrolo[2,1-h]pteridin-6(5H)-one] | 10 to 50 µM | < 1 µM | 1 to 10 µM | 
21 | CC[C@@]12CCCN1c1nc(-n3ccnc3-c3cc(F)cc(F)c3)ncc1N(C)C2=O [Example 226, (S)-2-(2-(3,5-difluorophenyl)-1H-imidazol-1-yl)-6a-ethyl-5-methyl-6a,7,8,9-tetrahydropyrrolo[2,1-h]pteridin-6(5H)-one] | 10 to 50 µM | < 1 µM | 10 to 50 µM | 
22 | CC[C@@H]1C(=O)N(C)c2cnc(-n3ccnc3-c3ccc(C#N)cc3)nc2N1C(C)C [Example 227, (R)-4-(1-(7-ethyl-8-isopropyl-5-methyl-6-oxo-5,6,7,8-tetrahydropteridin-2-yl)-1H-imidazol-2-yl)benzonitrile] | 10 to 50 µM | < 1 µM | 10 to 50 µM | 
23 | CC[C@@H]1C(=O)N(C)c2cnc(-n3ccnc3-c3cccc(C#N)c3)nc2N1C(C)C [Example 228, (R)-3-(1-(7-ethyl-8-isopropyl-5-methyl-6-oxo-5,6,7,8-tetrahydropteridin-2-yl)-1H-imidazol-2-yl)benzonitrile] | 10 to 50 µM | < 1 µM | 1 to 10 µM | 
24 | CC[C@@H]1C(=O)N(C)c2cnc(-n3ccnc3-c3ccc(F)c(F)c3)nc2N1C1CC(F)C1 (stereo partly drawn) [Example 229, (R)-2-(2-(3,4-difluorophenyl)-1H-imidazol-1-yl)-7-ethyl-8-(3-fluorocyclobutyl)-5-methyl-7,8-dihydropteridin-6(5H)-one] | 1 to 10 µM | < 1 µM | 1 to 10 µM | 
25 | CC[C@@H]1C(=O)N(C)c2cnc(-n3ccnc3C3=CCCC3)nc2N1C1CCCC1 [Example 231, (R)-2-(2-cyclopentenyl-1H-imidazol-1-yl)-8-cyclopentyl-7-ethyl-5-methyl-7,8-dihydropteridin-6(5H)-one] | 1 to 10 µM | < 1 µM | 1 to 10 µM | 
26 | CC[C@@H]1C(=O)N(C)c2cnc(-n3ccnc3-c3ccc(F)c(Cl)c3)nc2N1C1CCOC1 (stereo partly drawn) [Example 232, (7R)-2-(2-(3-chloro-4-fluorophenyl)-1H-imidazol-1-yl)-7-ethyl-5-methyl-8-(tetrahydrofuran-3-yl)-7,8-dihydropteridin-6(5H)-one] | 1 to 10 µM | < 1 µM | 1 to 10 µM | 
27 | CC[C@@H]1C(=O)N(C)c2cnc(-n3ccnc3-c3ccncc3)nc2N1CCC(F)(F)F [Example 234, (R)-7-ethyl-5-methyl-2-(2-(pyridin-4-yl)-1H-imidazol-1-yl)-8-(3,3,3-trifluoropropyl)-7,8-dihydropteridin-6(5H)-one] | 10 to 50 µM | < 1 µM | 1 to 10 µM | 
28 | CC[C@@]12CCCN1c1nc(-n3ncnc3C#Cc3ccccc3)ncc1N(C)C2=O [Example 235, (S)-6a-ethyl-5-methyl-2-(5-(phenylethynyl)-1H-1,2,4-triazol-1-yl)-6a,7,8,9-tetrahydropyrrolo[2,1-h]pteridin-6(5H)-one] | 10 to 50 µM | 10 to 50 µM | > 50 µM | 
